For orientation: melting point means the temperature, or range, at which the solid turns liquid.

In data set [1] the test system is HIV strain F, mutations K101E and K103N in HIV reverse transcriptase. As to the kind of experiment: Antiviral spectrum, cellular assay, strain F. Type of data set: cell-based. Particulars: Human immunodeficiency virus 1, read-out: pEC50 F (converted). On the procedure:
(§1) Because of the increasing emergence of drug resistant HIV strains, the present compounds were tested for their potency against clinically isolated HIV strains harboring several mutations. These mutations are associated with resistance to reverse transcriptase inhibitors and result in viruses that show various degrees of phenotypic cross-resistance to the currently commercially available drugs such as for instance AZT and delavirdine.
(§2) The antiviral activity of the compound of the present invention is evaluated in the presence of wild type HIV and HIV mutants bearing mutations at the reverse transcriptase gene. The activity of the compounds is evaluated using a cellular assay and the residual activity is expressed in pEC50 values. The columns IIIB and A-G in the table list the pEC50 values against various strains IIIB, A-G.
Strain F contains mutations K101E and K103N in HIV reverse transcriptase.

Data set [2] has as its system HIV strain E, mutations L100I and K103N in HIV reverse transcriptase. As to the kind of experiment: Antiviral spectrum, cellular assay, strain E. The format is cell-based. Particulars: Human immunodeficiency virus 1, read-out: pEC50 E (converted). On the procedure:
as §1, §2
Strain E contains mutations L100I and K103N in HIV reverse transcriptase, […]

Data set [3] concerns HIV strain C, mutation L100I in HIV reverse transcriptase. Description: Antiviral spectrum, cellular assay, strain C. Type of data set: cell-based. Particulars: Human immunodeficiency virus 1, read-out: pEC50 C (converted). On the procedure: as §1, §2
Strain C contains mutation L100I in HIV reverse transcriptase, […]

In data set [4] the test system is HIV strain B, mutation K103N in HIV reverse transcriptase. Description: Antiviral spectrum, cellular assay, strain B. The format is cell-based. Particulars: Human immunodeficiency virus 1, read-out: pEC50 B (converted). On the procedure: as §1, §2
Strain B contains mutation K103N in HIV reverse transcriptase, […]

In data set [5] the test system is HIV strain A, mutation Y181C in HIV reverse transcriptase. Description: Antiviral spectrum, cellular assay, strain A. Type of data set: cell-based. Particulars: Human immunodeficiency virus 1, read-out: pEC50 A (converted). The protocol: as §1, §2
Strain A contains mutation Y181C in HIV reverse transcriptase, […]

For data set [6], the system named is HIV strain D, mutation Y188L and S162K in HIV reverse transcriptase. As to the kind of experiment: Antiviral spectrum, cellular assay, strain D. Type of data set: cell-based. Particulars: Human immunodeficiency virus 1, read-out: pEC50 D (converted). On the procedure:
as §1, §2
Strain D contains mutation Y188L and S162K in HIV reverse transcriptase, […]

Data set [7] relates to wild type HIV-LAI strain (IIIB). Description: Antiviral spectrum, cellular assay, strain IIIB. Type of data set: cell-based. Particulars: Human immunodeficiency virus 1. The protocol:
as §1, §2
Strain IIIB is wild type HIV-LAI strain;

The molecule `Cc1cc(C#N)cc(C)c1Oc1nc(Nc2ccc(C#N)cc2)[n+]([O-])c(N)c1Br` [Compound 1] yielded a melting point of 271 °C. The EC50 in data set [1] is 1.05 nM. For the same molecule, the EC50 in data set [2] is 1.07 nM. Further, the EC50 in data set [3] is 0.631 nM. For the same molecule, the EC50 in data set [4] was 1.41 nM. Further, in data set [5], the EC50 is 0.631 nM. Besides, the EC50 in data set [6] is 0.603 nM. This molecule also gave an EC50 in data set [7] of 0.575 nM.
`Cc1cc(C#N)cc(C)c1Oc1nc(Nc2ccc(C#N)cc2)nc(N)c1Br` [Compound A, 4-[[6-amino-5-bromo-2-[(4-cyanophenyl)amino]-4-pyrimidinyl]oxy]-3,5-dimethylbenzonitrile, reference compound]: the EC50 in data set [1] is 4.57 nM; in data set [2], 8.13 nM; in data set [3], 2.88 nM; in data set [4] it was 1.78 nM; in data set [5] it was 10 nM; in data set [6], 2.45 nM. In data set [7], the EC50 was 2.82 nM.

For the origin of these results see patent US7935711B2, “HIV inhibiting 2-(4-cyanophenylamino) pyrimidine oxide derivatives” (priority 2005, dated 2011).
